Entries after “also recorded” stand apart in the source; their conditions may differ. Residues, ends and D or L forms follow the SMILES beside them. *: point of attachment. Cbz = O=C(OCc1ccccc1)*
Columns and labels:
T47D cells [1] = assay: Selleck anti-cancer compound library screen, PSMD2 KD versus control T47D cells (resazurin); format: cell-based, human; conditions: 4 concentrations, 72 hours
Description: After 48 hours the cells were collected, counted, and plated at 1000 cells/well in 384 well plates in duplicates for each cell line. Compounds from the Selleck Chemicals anti-cancer compound library β49 drugs in 4 concentrations; […]) were pinned the next day and viability was measured after 72 hours by the reduction of Resazurin (Ex=530 nm, Em=590 nm).
The effect of each drug on viability of cells was calculated by averaging the duplicate experiments. The data is plotted in FIG. 16 as the log2 of the ratio of viability of PSMD2 KD versus control cells (log2 (shPSMD2/Control)).

T47D cells [2] = assay: CellTiter-Glo viability of PSMD2 KD versus control T47D cells with BCL2 family inhibitors; format: cell-based, human
Description: Cell viability was measured by CellTiter-Glo® Luminescent Cell Viability Assay 72 hours after addition of the compounds to cells.

IMR32 and Kelly cells [3] = assay: CellTiter-Glo viability of IMR32 and Kelly neuroblastoma cells; format: cell-based; conditions: 72 hours
IMR32 and Kelly cells [4] = assay: as above; format: cell-based; conditions: 72 hours; remark: listed apart in the source
Description: IMR32 and Kelly cells were each cultured in the presence of bortezomib at concentrations ranging from 0.001 um to 0.100 um. […] The fold viability relative to culture in the absence of bortezomib was determined for each cell line.
The fold viability relative to culture in the absence of the compound was determined for each cell line.

T47D cells [5] = assay: Cell viability of T47D cells with doxycycline-inducible PSMD2 shRNA; format: cell-based, human; conditions: for resistance of cells harboring the PSMD2 shRNA versus parental line (EC50): doxycycline 3 days, 96 hour culture
Description: T47D cells harboring a doxycycline inducible control shRNA (GFP) or a doxycycline-inducible PSMD2 shRNA (TurboRFP) were incubated with doxycycline for 3 days. Cells were then split and grown in the absence of Dox and proteasome inhibitors were then added at various concentrations. Cells were maintained in culture and then counted.
For the generation of the T47D Tet-inducible PSMD2 knockdown cell line—the TRIPZ vector with an inducible shRNA targeting PSMD2 was purchased from Dharmacon (clone V3THS_403760). It was introduced to the T47D cells according to manufactures protocol and cells were selected with puromycin 1 μg/ml for one week. The cells were exposed to doxycycline for 24 hours and cells were FACS sorted for the top 10% of most RFP expressing cells (highest expression of shRNA). The cells were further cultured in the absence of doxycycline and PSMD2 knockdown was induced as specified in the relevant Examples.
Relative cell growth and survival were measured in 96-well microplate format in the shRNA experiments and in 384 well format in the drug toxicity assays, by using the fluorescent detection of resazurin dye reduction as an endpoint (544 nm excitation and 590 nm emission). 2,500 cells in 96 wells format or 1,000 cells in 384 well format were plated 24 hours before compound exposure (for 72 hours or indicated time). Each analysis was performed at least with three replicas.

Saccharomyces cerevisiae = assay: Yeast DAmP strains MG132 sensitivity assay; format: cell-based; conditions: 50 μM MG132, 48 hours
Text: Additionally, because the essential role of the proteasome in maintaining protein homeostasis is conserved across all eukaryotes (Hilt and Wolf, 1995), we asked whether reducing expression of 19S subunits confers resistance to proteasome inhibitors in an evolutionary distant organism—the yeast Saccharomyces cerevisiae. As the 19S regulatory complex components are essential for viability in yeast, we utilized a library of hypomorphic (DAmP) alleles for essential yeast genes. In this library, the expression of individual mRNA species is reduced from two to ten-fold by replacing the mRNA's 3′ untranslated region (Breslow et al., 2008).
Yeast cells were grown over night in media containing L-proline as nitrogen source instead of ammonium sulfate. […] OD was measured over the period of 48 hours.

T47D cells [6] = assay: Competition co-culture of shPSMD2-RFP and shControl-GFP T47D cells, FACS and microscopy; format: cell-based, human; conditions: 1:10 plating ratio; concentration-dependent
Description: We created two cell lines—one line that expresses red fluorescent protein (turboRFP) and the doxycycline-inducible PSMD2-targeting shRNA and another line that expresses green fluorescent protein (GFP) and a doxycycline-inducible control shRNA (FIG. 6A). First, we induced shRNA expression with doxycycline for 48 hours. After recovery, we mixed shPSMD2-RFP and shControl-GFP cells at different ratios (either 1:1, 1:2, 1:5 or 1:10), adding the cells with reduced PSMD2 as the minority subpopulation. Twenty-four hours after plating, we treated these mixed populations of cells for 48 hours with increasing concentrations of bortezomib (5, 7.5 or 10 nM). We allowed the cells to recover in the absence of bortezomib and then we quantified the red and green cells by FACS analysis (FIG. 6A) and captured representative images by fluorescence microscopy (FIG. 6B).
The experiment described in Example 10 was repeated with minor differences using a panel of different proteasome inhibitors: MLN2238, MLN9708, and oprozomib T47D cells harboring a doxycycline inducible control shRNA (GFP) or a doxycycline-inducible PSMD2 shRNA (TurboRFP) were incubated with doxycycline for 3 days. Cells were collected, counted, and plated at a 1:10 ratio of TurboRFP-expressing PSMD2 shRNA cells/GFP expression control shRNA cells in the absence of Dox. Proteasome inhibitors were added at the specified concentrations and cells were maintained in culture. Cells were allowed to recover in the absence of the proteasome inhibitor and then analyzed by FACS (FIG. 8B, top) or visualized by microscopy (FIG. 8B, bottom). In the absence of proteasome inhibitors, the initial plating ratio of these cells (1:10) was maintained over the duration of the experiment (FIG. 8B). […] The effect was concentration-dependent in that higher concentrations elicited more substantial shifts.
cells were trypsinized in 100 μL Accumax® solution and further diluted into 100 μl PBSx1. The number of cells with red or green fluorescent proteins was measured by MACSQuant® VYB according to manufactures protocol. Images of RFP and GFP were created by overlaying images using Fiji software.

Compound	selective effect on viability, PSMD2 KD versus control cells (log2 (shPSMD2/Control)) (T47D cells [1])	sensitivity of IMR32 cells versus Kelly cells (IMR32 and Kelly cells [4])	shift of surviving cell populations towards PSMD2 shRNA cells (T47D cells [6])	resistance of cells harboring the PSMD2 shRNA versus parental line (EC50) (T47D cells [5])	further results
CC1(C)CCC(c2ccc(Cl)cc2)=C(CN2CCN(c3ccc(C(=O)NS(=O)(=O)c4ccc(N[C@H](CCN5CCOCC5)CSc5ccccc5)c(S(=O)(=O)C(F)(F)F)c4)cc3)CC2)C1 [ABT-263, navitoclax]	selectively inhibits growth of T47D cancer cells that have a reduced level of PSMD2; also recorded: selectively reduce the viability of PSMD2 KD cells versus control cells	dramatically more sensitive; also recorded: significantly more sensitive	–	–	sensitivity of PSMD2 KD cells versus control cells (T47D cells [2]; 72 hours): more sensitive; sensitization by suppression of 19S subunit PSMD2 (T47D cells [2]; doxycycline-induced): not sufficient, however, to induce a profound sensitization; preferential sensitivity of IMR32 versus Kelly cells, compared between BCL2 family inhibitors (IMR32 and Kelly cells [3]): much greater; sensitivity after reintroduction of the PSMD5 subunit (IMR32 and Kelly cells [3]; IMR32 cells): did not significantly alter
COc1ccc(-c2ccc3c(N4CCOCC4)nc(N4C[C@@H](C)O[C@@H](C)C4)nc3n2)cc1CO [Ku-0063794]	selectively inhibit growth of T47D cancer cells that have a reduced level of PSMD2; also recorded: selectively reduce the viability of PSMD2 KD cells versus control cells	–	–	–	–
CC(C)C[C@@H](C=O)NC(=O)[C@H](CC(C)C)NC(=O)[C@H](CC(C)C)NC(=O)OCc1ccccc1 [MG132, N-(benzyloxycarbonyl)leucinylleucinylleucinal] (Cbz-Leu-Leu-Leu-aldehyde)	–	–	–	–	resistance upon doxycycline-induced reduction of PSMD2 (T47D cells [5]; PSMD2 shRNA versus control): significantly increased resistance; resistance of 19S subunit DAmP strains to proteasome inhibition (Saccharomyces cerevisiae): five of these twelve strains had significantly increased resistance
CC(C)C[C@H](NC(=O)CNC(=O)c1cc(Cl)ccc1Cl)B(O)O [MLN2238, ixazomib]	selectively reduce viability of control cells versus PSMD2 KD cells	–	substantially shifted the populations of surviving cells	–	–
CC(C)C[C@H](NC(=O)[C@H](CCc1ccccc1)NC(=O)CN1CCOCC1)C(=O)N[C@@H](Cc1ccccc1)C(=O)N[C@@H](CC(C)C)C(=O)[C@@]1(C)CO1 [carfilzomib]	–	–	–	considerably more resistant	–
Nc1nc(Cl)nc2c1ncn2[C@H]1C[C@H](O)[C@@H](CO)O1 [cladribine, 2-chlorodeoxyadenosine]	selectively inhibit growth of T47D cancer cells that have a reduced level of PSMD2; also recorded: selectively reduce the viability of PSMD2 KD cells versus control cells	–	–	–	–
CCN(CC)C(=S)SSC(=S)N(CC)CC [disulfiram, tetraethylthiuram disulfide]	selectively inhibit growth of T47D cancer cells that have a reduced level of PSMD2; also recorded: selectively reduce the viability of PSMD2 KD cells versus control cells	dramatically more sensitive	–	–	–
CN(NC(=O)CC(=O)NN(C)C(=S)c1ccccc1)C(=S)c1ccccc1 [elesclomol]	selectively inhibit growth of T47D cancer cells that have a reduced level of PSMD2; also recorded: selectively reduce the viability of PSMD2 KD cells versus control cells	dramatically more sensitive	–	–	–
COC[C@H](NC(=O)c1cnc(C)s1)C(=O)N[C@@H](COC)C(=O)N[C@@H](Cc1ccccc1)C(=O)[C@@]1(C)CO1 [oprozomib]	–	–	substantially shifted the populations of surviving cells	considerably more resistant	–
ixazomib citrate [MLN9708]	selectively reduce viability of control cells versus PSMD2 KD cells	–	substantially shifted the populations of surviving cells	considerably more resistant	–
